Assay results reported in ChEMBL document CHEMBL4371079, “Improved synthesis, resolution, absolute configuration determination and biological evaluation of HLM006474 enantiomers” (Bioorg Med Chem Lett, 2019).
The source made the active and inactive calls. The rule behind the calls is not given here.

biological target: Transcription factor E2F1 (Homo sapiens) (UniProt Q01094); experiment: Inhibition of E2F1 transcriptional activity (unknown origin) expressed in HEK293 cells at 10 uM measured after 48 hrs by luciferase reporter gene assay; type: cell-based
Sequence (Q01094 whole entry): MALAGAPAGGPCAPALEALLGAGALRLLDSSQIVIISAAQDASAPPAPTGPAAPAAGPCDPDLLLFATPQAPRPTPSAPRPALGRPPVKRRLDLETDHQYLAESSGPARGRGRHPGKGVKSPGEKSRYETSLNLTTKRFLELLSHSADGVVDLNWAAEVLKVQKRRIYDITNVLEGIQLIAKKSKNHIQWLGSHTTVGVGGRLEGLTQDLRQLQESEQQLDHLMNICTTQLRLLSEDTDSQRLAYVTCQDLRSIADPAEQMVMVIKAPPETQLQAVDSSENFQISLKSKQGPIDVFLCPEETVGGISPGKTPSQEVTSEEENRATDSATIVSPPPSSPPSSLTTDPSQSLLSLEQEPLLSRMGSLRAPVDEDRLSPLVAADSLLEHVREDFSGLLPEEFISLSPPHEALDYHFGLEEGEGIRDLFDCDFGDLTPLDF

inhibition	SMILES
Active	CCOc1ccc([C@@H](Nc2ccccn2)c2ccc3ccc(C)nc3c2O)cc1C
inactive	CCOc1ccc([C@H](Nc2ccccn2)c2ccc3ccc(C)nc3c2O)cc1C
Active	CCOc1ccc(C(Nc2ccccn2)c2ccc3ccc(C)nc3c2O)cc1C (racemic)
